Values quoted from earlier work in patent US20030119753A1, “Novel ascorbic acid compounds, methods of synthesis and application use thereof” (priority 2001, published 2003).

Details: relative to ascorbic acid

Question: With `O=C1O[C@H]([C@@H](O)CO)C(O)=C1OS(=O)(=O)O` [L-ascorbate 2-sulphate] as the compound, how does the “more stable than ascorbic acid” value read?
Answer: The value was 20 times.
